The values that follow come from patent EP4706404A1, “MICROENCAPSULATED NATURAL PRESERVATIVE AND ANTIOXIDANT FOR FATTY FOODS, WITH WALNUT HUSK AND WALNUT TREE LEAF EXTRACT” (Universidad Andres Bello, priority 2023, dated 2024).

For one series, the system named is Salmonella. The note with it: mayonnaise. An excerpt:
(§1) Mayonnaise was made on a laboratory scale using mayonnaise powder, the flowchart is shown in Diagram 3. [formula]
(§2) Where the stability of mayonnaise without any antioxidant (control) was studied, the stability when using a frequently used synthetic antioxidant such as EDTA, and a microparticle of the invention for foods with more than 70% fat, which corresponds to Maltodextrin with capsule as a channeling agent (EH:MD-Capsule). The dose used was in accordance with the food safety regulations (FSR) and corresponded to 5.5 g of microparticles per 2 kilos of mayonnaise. […] Table 9. Mayonnaise formulation for stability tests.

Series [1] has as its system mesophilic aerobic microorganisms (AMR). The note with it: mayonnaise.
Excerpt: as §1, §2

A further series deals with S. aureus. The note with it: mayonnaise.

Like-named read-outs stand apart in the source and are kept apart here.

Method for HEPG-2: The test consisted of evaluating the cytotoxic effect of walnut husk and leaf extract, in different concentrations, on viability in cell culture. For this, the HEPG-2 line was used as a cell matrix, which are immortalized human liver cells.
To evaluate the effect on viability in cell culture, an assay was performed with the Invitrogen MTT kit (Ref.V13154; lot:1924421), whose technique consists of a colorimetric analysis that measures the metabolic activity of the cell. This assay was carried out following the protocol provided by the kit supplier, using a 96-well plate with HEPG-2 cell culture with an approximate confluence of 80%. Taking the cytotoxic compound SDS 0.2% as a positive control and the cell culture with its medium as a negative control.

With `CCCCCCCCCCCCOS(=O)(=O)[O-].[Na+]` [SDS], the Cell viability in the series on HEPG-2 was 22.9%; in the series with Caco-2 cells, 3.94± 0.2%.
Take `O=C(O)CN(CCN(CC(=O)O)CC(=O)O)CC(=O)O` [synthetic, EDTA]: the “Salmonella Title” value with Salmonella (4°C, 6 days refrigeration) was determined as 0 CFU/gr; in the series with Salmonella (4°C, 13 days refrigeration) it was 0 CFU/gr; in the series with Salmonella (4°C, 20 days refrigeration), 0 CFU/gr; in the series on Salmonella (4°C, 27 days refrigeration), 0 CFU/gr; in the series with Salmonella (Time 0) it was 0 CFU/gr. Further, the “day of conservation from which AMR were detected” value in series [1] (4°C) was 20 days. Further, the “AMR Title” value in series [1] (4°C, 6 days refrigeration) is reported as 0 CFU/gr; in series [1] (4°C, 13 days refrigeration), 0 CFU/gr; in series [1] (4°C, 20 days refrigeration), 2x10^4 CFU/gr; in series [1] (4°C, 27 days refrigeration), 1.25 x 10^5 CFU/gr; in series [1] (Time 0) it was 0 CFU/gr. Moreover, in the series with S. aureus (4°C), the “day from which S. aureus develops” value amounted to 20 days. For the same compound, the “S. aureus Title” value in the series with S. aureus (4°C, 6 days refrigeration) is on record as 0 CFU/gr; with S. aureus (4°C, 13 days refrigeration), 0 CFU/gr; with S. aureus (4°C, 27 days refrigeration), 1.15 x 10^4 CFU/gr; in the series with S. aureus (Time 0) it was 0 CFU/gr.
